Source: PMC3674995, “Safety, Pharmacokinetic, and Efficacy Studies of Oral DB868 in a First Stage Vervet Monkey Model of Human African Trypanosomiasis” (PLoS Neglected Tropical Diseases, 2013)
Entries after “also recorded” stand apart in the source; their conditions may differ.

Key:
[1] = test system: T. b. rhodesiense KETRI 2537; experiment: Efficacy in first stage HAT vervet monkey model; assay type: in vivo
Description: Monkeys that were deemed as treatment failures/relapses or developed severe adverse clinical signs as defined in the protocol (e.g., inability or reluctance to perch, less than ¼ of normal daily feed intake for 2–3 consecutive days) were immediately withdrawn from the study and humanely euthanized for post-mortem examination. These monkeys were euthanized by intravenous administration of 20% (w/v) pentobarbitone sodium solution (150 mg/kg body weight; Euthatal; Rhône-Mérieux, United Kingdom).

[2] = test system: T. b. brucei s427 trypanosomes; parameters: method as in PMID 21402852; settings: 3.2 µM; cited from earlier work

Row | Compound | Trypanosomes blood/CSF at EoT ([1]; intramuscular 4 mg/kg×7 days from 7 DPI, monkeys 651, 541, 672) | Final efficacy assesment ([1]; intramuscular 4 mg/kg×7 days, monkeys 651, 541, 672) | time to clearance of trypanosomes from peripheral blood ([1]; monkey, in vivo, im, 4 mg/kg) | exposure required to kill trypanosomes in culture [2]
1 | N=C(N)c1ccc(OCCCCCOc2ccc(C(=N)N)cc2)cc1 [Pentamidine, reference compound] | Pos and Neg | Not cured; also recorded: Cured | 2 days | 
2 | N=C(N)c1ccc(-c2ccc(-c3ccc(C(=N)N)cc3)o2)cc1 [furamidine, 2,5-bis(4-amidinophenyl)furan, reference compound] |  |  |  | 1 h
